In brackets after ≈: the same amount, converted by molar mass. Several values for one entry are separate records, joined by “and”; a condition that tells them apart may be missing. Identical values can stand only once. Blank lines part the entries; values can stand above or below the compound they belong to.
Experiments:
Assay in all cases: ≥ marks a high value that may be exact or a test limit, other limits are often not marked, values filed in µg/mL are converted to µM
Aeromonas hydrophila = tested on: Aeromonas hydrophila
Bacillus cereus = tested on: Bacillus cereus
Bacillus megaterium = tested on: Bacillus megaterium
Burkholderia stabilis = tested on: Burkholderia stabilis
Escherichia coli = tested on: Escherichia coli
Kluyvera cryocrescens = tested on: Kluyvera cryocrescens
Lelliottia amnigena = tested on: Lelliottia amnigena
Microbacterium oxydans = tested on: Microbacterium oxydans
Micrococcus luteus = tested on: Micrococcus luteus
Proteus sp. = tested on: Proteus sp.
Pseudomonas fluorescens = tested on: Pseudomonas fluorescens
[1] = tested on: Salmonella enterica subsp. enterica serovar Gallinarum
[2] = tested on: Salmonella enterica subsp. enterica serovar Typhi
Shigella sp. = tested on: Shigella sp.
Sporosarcina ureae = tested on: Sporosarcina ureae
Staphylococcus aureus = tested on: Staphylococcus aureus
[3] = tested on: Lactiplantibacillus plantarum 965
[4] = tested on: Latilactobacillus sakei NCDO 2714
[5] = tested on: Bacillus anthracis UM23-CL2
[6] = tested on: Burkholderia cepacia J2540
[7] = tested on: Bacillus megaterium CIP 6620
[8] = tested on: Corynebacterium stationis CIP 101282
Escherichia coli SBS 363 = tested on: Escherichia coli SBS 363
[9] = tested on: Microbacterium maritypicum CIP 105733T
[10] = tested on: Micrococcus luteus CIP 5345
[11] = tested on: Staphylococcus aureus CIP 103428
[12] = tested on: Staphylococcus aureus SG511
[13] = tested on: Staphylococcus haemolyticus
[14] = tested on: Vibrio nigripulchritudo CIP 103195
[15] = tested on: Vibrio splendidus CIP 107715
[16] = tested on: Escherichia coli K12 MG1655
[17] = tested on: Staphylococcus aureus 68 HER 1049
[18] = tested on: Acinetobacter baumannii KCTC 2508
[19] = tested on: Escherichia coli ATCC 25922
[20] = tested on: Klebsiella pneumoniae KCTC 2208
Klebsiella pneumoniae = tested on: Klebsiella pneumoniae
[21] = tested on: Micrococcus luteus ATCC 49732
[22] = tested on: Pseudomonas aeruginosa ATCC 27853
[23] = tested on: Staphylococcus aureus ATCC 25923
[24] = tested on: Vibrio anguillarum ATCC 43308
Escherichia coli HB101 = tested on: Escherichia coli HB101
Bacillus subtilis PS832 = tested on: Bacillus subtilis PS832
Escherichia coli MG1655 = tested on: Escherichia coli MG1655

MIC (Aeromonas hydrophila): 1.64 µM (≈ 5.07 µg/mL)
MIC (Bacillus cereus): 0.327 µM (≈ 1.01 µg/mL)
MIC (Bacillus megaterium): 3.27 µM (≈ 10.1 µg/mL)
MIC (Burkholderia stabilis): ≥ 164 µM
MIC (Escherichia coli): 16.4 µM (≈ 50.7 µg/mL)
MIC (Kluyvera cryocrescens): ≥ 164 µM
MIC (Lelliottia amnigena): 16.4 µM (≈ 50.7 µg/mL)
MIC (Microbacterium oxydans): 0.164 µM (≈ 0.507 µg/mL)
MIC (Micrococcus luteus): 16.4 µM (≈ 50.7 µg/mL)
MIC (Proteus sp.): ≥ 164 µM
MIC (Pseudomonas fluorescens): ≥ 32.7 µM
MIC [1]: 1.64 µM (≈ 5.07 µg/mL)
MIC [2]: 16.4 µM (≈ 50.7 µg/mL)
MIC (Shigella sp.): 16.4 µM (≈ 50.7 µg/mL)
MIC (Sporosarcina ureae): ≥ 164 µM
MIC (Staphylococcus aureus): 164 µM (≈ 507 µg/mL)
Compound: CC[C@H](C)[C@H](NC(=O)[C@H](Cc1cnc[nH]1)NC(=O)[C@H](CC(N)=O)NC(=O)[C@@H](NC(=O)[C@@H](NC(=O)[C@H](CC(C)C)NC(=O)[C@H](CC(=O)O)NC(=O)[C@@H]1CCCN1C(=O)[C@H](CC(C)C)NC(=O)[C@H](CCCCN)NC(=O)[C@H](Cc1c[nH]c2ccccc12)NC(=O)[C@@H](N)CCC(=O)O)[C@@H](C)CC)[C@@H](C)CC)C(=O)N[C@H](C(=O)N[C@@H](CC(C)C)C(=O)N[C@H](C(=O)N[C@@H](CCCN=C(N)N)C(=O)N[C@@H](CCCN=C(N)N)C(=O)N[C@@H](CC(N)=O)C(=O)N[C@H]1CSSC[C@@H](C(=O)NCC(=O)O)NC(=O)[C@H](CCCN=C(N)N)NC(=O)[C@H](Cc2ccc(O)cc2)NC(=O)[C@H](CCCCN)NC(=O)[C@H](Cc2ccccc2)NC1=O)[C@@H](C)O)[C@@H](C)O [EWKLPDLIINHITLTRRNCFKYRCG]

MIC [4]: 0.015 µM (≈ 0.0298 µg/mL)
Compound: CC[C@H](C)[C@H](NC(=O)[C@H](C)NC(=O)[C@@H](NC(=O)[C@H](C)NC(=O)CN)[C@@H](C)O)C(=O)N[C@@H](CCCCN)C(=O)N[C@@H](CCC(N)=O)C(=O)N[C@H](C(=O)N[C@@H](CCCCN)C(=O)N[C@@H](CCCCN)C(=O)N[C@@H](CC(C)C)C(=O)N[C@@H](Cc1ccccc1)C(=O)N[C@@H](CCCCN)C(=O)N[C@@H](CCCCN)C(=O)N[C@@H](Cc1c[nH]c2ccccc12)C(=O)NCC(=O)N[C@@H](Cc1c[nH]c2ccccc12)C(=O)O)C(C)C [GATAIKQVKKLFKKWGW]
MIC [3]: 0.4 µM (≈ 0.796 µg/mL)

Compound: CC[C@H](C)[C@H](NC(=O)CN)C(=O)NCC(=O)N[C@@H](CCCCN)C(=O)N[C@@H](Cc1ccccc1)C(=O)N[C@@H](CC(C)C)C(=O)N[C@@H](Cc1cnc[nH]1)C(=O)N[C@@H](CO)C(=O)N[C@@H](C)C(=O)N[C@@H](CCCCN)C(=O)N[C@@H](CCCCN)C(=O)N[C@@H](Cc1ccccc1)C(=O)N[C@@H](Cc1ccccc1)C(=O)N[C@@H](CCCCN)C(=O)N[C@@H](CCCN=C(N)N)C(=O)N[C@H](C(=O)N[C@H](C(=O)N[C@@H](CCC(N)=O)C(=O)N[C@@H](CCCN=C(N)N)C(=O)N[C@H](C(=O)N[C@@H](CCCCN)C(=O)N[C@@H](CC(=O)O)C(=O)N[C@@H](Cc1ccccc1)C(=O)N[C@@H](CC(C)C)C(=O)N[C@@H](CCCN=C(N)N)C(=O)O)[C@@H](C)CC)C(C)C)[C@@H](C)CC [GIGKFLHSAKKFFKRIVQRIKDFLR]
MIC [5]: ≥ 82.4 µM
MIC [6]: ≥ 82.4 µM

MIC [7]: 20 µM (≈ 36.8 µg/mL)
MIC [8]: 20 µM (≈ 36.8 µg/mL)
MIC (Escherichia coli SBS 363): ≥ 80 µM
MIC [9]: 20 µM (≈ 36.8 µg/mL)
MIC [10]: ≥ 80 µM
MIC [11]: 20 µM (≈ 36.8 µg/mL)
MIC [12]: 20 µM (≈ 36.8 µg/mL)
MIC [14]: ≥ 40 µM
MIC [15]: ≥ 40 µM
Compound: CC[C@H](C)[C@H](NC(=O)[C@@H]1CCCN1C(=O)CN)C(=O)N[C@@H](CCCN=C(N)N)C(=O)N[C@@H](CCCN=C(N)N)C(=O)N1CCC[C@H]1C(=O)N[C@@H](CCCCN)C(=O)N1CCC[C@H]1C(=O)N[C@@H](CCCN=C(N)N)C(=O)N1CCC[C@H]1C(=O)N[C@@H](CCCN=C(N)N)C(=O)N[C@@H](CCC(N)=O)C(=O)N[C@@H](CCCN=C(N)N)C(=O)N1CCC[C@H]1C(=O)N[C@@H](CCC(=O)O)C(=O)O [GPIRRPKPRPRQRPE]
MIC [13]: 20 µM (≈ 36.8 µg/mL)

MIC [16]: 2.19 µM (≈ 4 µg/mL)
MIC [17]: 2.19 µM (≈ 4 µg/mL)
Compound: CC[C@H](C)[C@H](NC(=O)[C@H](CC(C)C)NC(=O)[C@H](CCCN=C(N)N)NC(=O)[C@H](Cc1c[nH]c2ccccc12)NC(=O)CN)C(=O)N[C@@H](CCCCN)C(=O)N[C@@H](CCCCN)C(=O)N[C@H](C(=O)N[C@@H](CC(C)C)C(=O)N[C@@H](CCCN=C(N)N)C(=O)N[C@H](C(=O)N[C@@H](Cc1ccccc1)C(=O)N[C@@H](CCCCN)C(=O)NCC(=O)N[C@@H](CC(C)C)C(=O)O)C(C)C)[C@@H](C)CC [GWRLIKKILRVFKGL]

MIC [18]: 16 µM (≈ 39.3 µg/mL)
MIC [19]: 2.57 µM (≈ 6.3 µg/mL)
MIC [20]: 16 µM (≈ 39.3 µg/mL)
MIC (Klebsiella pneumoniae): > 32 µM and 16 µM
MIC [21]: 2.57 µM (≈ 6.3 µg/mL)
MIC [22]: 32 µM (≈ 78.6 µg/mL)
MIC [23]: 2.57 µM (≈ 6.3 µg/mL)
MIC [24]: 5.09 µM (≈ 12.5 µg/mL)
Compound: CC[C@H](C)[C@H](NC(=O)[C@@H](NC(=O)[C@H](Cc1cnc[nH]1)NC(=O)[C@H](CCCN=C(N)N)NC(=O)[C@H](C)NC(=O)[C@H](CCCN=C(N)N)NC(=O)[C@H](CC(C)C)NC(=O)[C@H](CO)NC(=O)[C@H](C)NC(=O)[C@H](CS)NC(=O)[C@H](CC(C)C)NC(=O)[C@@H](N)CC(N)=O)[C@@H](C)O)C(=O)N1CCC[C@H]1C(=O)N[C@@H](CCC(N)=O)C(=O)N[C@@H](CS)C(=O)N[C@@H](CCCCN)C(=O)N[C@@H](CCCCN)C(=O)N[C@@H](Cc1ccccc1)C(=O)NCC(=O)N[C@@H](CCCN=C(N)N)C(=O)N[C@@H](CCCN=C(N)N)C(=O)O [NLCASLRARHTIPQCKKFGRR]

MIC [19]: > 128 µM
MIC (Escherichia coli HB101): ≥ 128 µM
Compound: CC[C@H](C)[C@H](NC(=O)[C@H](CCCN=C(N)N)NC(=O)[C@@H](N)CCCN=C(N)N)C(=O)N[C@@H](CCCN=C(N)N)C(=O)N1CCC[C@H]1C(=O)N[C@@H](CCCN=C(N)N)C(=O)N1CCC[C@H]1C(=O)N[C@@H](CCCN=C(N)N)C(=O)O [RRIRPRPR]

MIC (Bacillus subtilis PS832): 4 µM (≈ 6.19 µg/mL)
MIC (Escherichia coli MG1655): 8 µM (≈ 12.4 µg/mL)
Compound: CC[C@H](C)[C@H](NC(=O)[C@H](CCCN=C(N)N)NC(=O)[C@H](CCCCN)NC(=O)[C@H](CC(C)C)NC(=O)[C@H](CC(C)C)NC(=O)CNC(=O)[C@H](Cc1cnc[nH]1)NC(=O)[C@@H](NC(=O)[C@@H](N)CCCN=C(N)N)[C@@H](C)O)C(=O)N[C@@H](CCCCN)C(=O)N[C@H](C(=O)N[C@@H](CC(C)C)C(=O)N[C@@H](CC(C)C)C(N)=O)[C@@H](C)O [RTHGLLKRIKTLL]

— DBAASP
